# Columns and labels:
# [1] = parameters: method as in supplement references [1-55] as printed per drug; conditions: minimum steady-state blood plasma concentration after multiple dose administration; ref supplement references [1-55] per drug; cited from earlier work
# [2] = Long-term stability in spiked pooled human plasma
# [3] = Short-term stability in spiked pooled human plasma (bench-top, 4 °C, 56 °C)
# [4] = Autosampler stability of ready for injection samples; type: physicochemical, human
# [5] = Freeze-thaw stability in spiked pooled human plasma; type: physicochemical
smiles,measurement,setting,value
Cc1nc(Nc2ncc(C(=O)Nc3c(C)cccc3Cl)s2)cc(N2CCN(CCO)CC2)n1 [Dasatinib],cmin,[1],2.61 ng/mL
same,"Long-term stability, 1 month, -20°C Accuracy [%]",[2]; validation standard 2xLLOV,99.2%
same,"Long-term stability, 1 month, -80°C Accuracy [%]",[2]; validation standard 2xLLOV,92.5%
same,"Long-term stability, 2 month, -20°C Accuracy [%]",[2]; validation standard 2xLLOV,98.2%
same,"Long-term stability, 2 month, -80°C Accuracy [%]",[2]; validation standard 2xLLOV,96.3%
same,"Long-term stability, 3 month, -20°C Accuracy [%]",[2]; validation standard 2xLLOV,102.0%
same,"Long-term stability, 3 month, -80°C Accuracy [%]",[2]; validation standard 2xLLOV,99.1%
same,"Long-term stability, 6 weeks, 4°C, without daylight Accuracy [%]",[2]; validation standard 2xLLOV,72.6%
same,"Long-term stability, 1 month, -20°C Accuracy [%]",[2]; validation standard LLOV,108.6%
same,"Long-term stability, 1 month, -80°C Accuracy [%]",[2]; validation standard LLOV,89.0%
same,"Long-term stability, 2 month, -20°C Accuracy [%]",[2]; validation standard LLOV,82.2%
same,"Long-term stability, 2 month, -80°C Accuracy [%]",[2]; validation standard LLOV,84.9%
same,"Long-term stability, 3 month, -20°C Accuracy [%]",[2]; validation standard LLOV,81.3%
same,"Long-term stability, 3 month, -80°C Accuracy [%]",[2]; validation standard LLOV,85.5%
same,"Long-term stability, 6 weeks, 4°C, without daylight Accuracy [%]",[2]; validation standard LLOV,79.4%
same,"Long-term stability, 1 month, -20°C Accuracy [%]",[2]; validation standard MOV,97.7%
same,"Long-term stability, 1 month, -80°C Accuracy [%]",[2]; validation standard MOV,91.3%
same,"Long-term stability, 2 month, -20°C Accuracy [%]",[2]; validation standard MOV,92.8%
same,"Long-term stability, 2 month, -80°C Accuracy [%]",[2]; validation standard MOV,92.3%
same,"Long-term stability, 3 month, -20°C Accuracy [%]",[2]; validation standard MOV,102.9%
same,"Long-term stability, 3 month, -80°C Accuracy [%]",[2]; validation standard MOV,101.1%
same,"Long-term stability, 6 weeks, 4°C, without daylight Accuracy [%]",[2]; validation standard MOV,102.3%
same,"Long-term stability, 1 month, -20°C Accuracy [%]",[2]; validation standard ULOV,97.7%
same,"Long-term stability, 1 month, -80°C Accuracy [%]",[2]; validation standard ULOV,93.4%
same,"Long-term stability, 2 month, -20°C Accuracy [%]",[2]; validation standard ULOV,95.6%
same,"Long-term stability, 2 month, -80°C Accuracy [%]",[2]; validation standard ULOV,100.4%
same,"Long-term stability, 3 month, -20°C Accuracy [%]",[2]; validation standard ULOV,104.5%
same,"Long-term stability, 3 month, -80°C Accuracy [%]",[2]; validation standard ULOV,105.8%
same,"Long-term stability, 6 weeks, 4°C, without daylight Accuracy [%]",[2]; validation standard ULOV,97.9%
same,"Short-time stability (1h, 56°C) Accuracy [%]",[3]; validation standard 2xLLOV,47.7%
same,"Short-time stability (24h, 4°C, without daylight) Accuracy [%]",[3]; validation standard 2xLLOV,102.2%
same,"Short-time stability (24h, RT, with daylight) Accuracy [%]",[3]; validation standard 2xLLOV,90.1%
same,"Short-time stability (24h, RT, without daylight) Accuracy [%]",[3]; validation standard 2xLLOV,98.3%
same,"Short-time stability (1h, 56°C) Accuracy [%]",[3]; validation standard LLOV,65.9%
same,"Short-time stability (24h, 4°C, without daylight) Accuracy [%]",[3]; validation standard LLOV,124.4%
same,"Short-time stability (24h, RT, with daylight) Accuracy [%]",[3]; validation standard LLOV,90.7%
same,"Short-time stability (24h, RT, without daylight) Accuracy [%]",[3]; validation standard LLOV,115.9%
same,"Short-time stability (1h, 56°C) Accuracy [%]",[3]; validation standard MOV,46.4%
same,"Short-time stability (24h, 4°C, without daylight) Accuracy [%]",[3]; validation standard MOV,100.1%
same,"Short-time stability (24h, RT, with daylight) Accuracy [%]",[3]; validation standard MOV,91.7%
same,"Short-time stability (24h, RT, without daylight) Accuracy [%]",[3]; validation standard MOV,90.0%
same,"Short-time stability (1h, 56°C) Accuracy [%]",[3]; validation standard ULOV,38.9%
same,"Short-time stability (24h, 4°C, without daylight) Accuracy [%]",[3]; validation standard ULOV,96.7%
same,"Short-time stability (24h, RT, with daylight) Accuracy [%]",[3]; validation standard ULOV,99.4%
same,"Short-time stability (24h, RT, without daylight) Accuracy [%]",[3]; validation standard ULOV,93.1%
same,"Autosampler (24h, 4°C) Accuracy [%]",[4]; validation standard 2xLLOV,102.9%
same,"Autosampler (72h, 4°C) Accuracy [%]",[4]; validation standard 2xLLOV,106.3%
same,"Autosampler (24h, 4°C) Accuracy [%]",[4]; validation standard LLOV,116.5%
same,"Autosampler (72h, 4°C) Accuracy [%]",[4]; validation standard LLOV,114.9%
same,"Autosampler (24h, 4°C) Accuracy [%]",[4]; validation standard MOV,102.8%
same,"Autosampler (72h, 4°C) Accuracy [%]",[4]; validation standard MOV,99.0%
same,"Autosampler (24h, 4°C) Accuracy [%]",[4]; validation standard ULOV,102.6%
same,"Autosampler (72h, 4°C) Accuracy [%]",[4]; validation standard ULOV,101.0%
same,Freeze-Thaw Accuracy [%],[5]; validation standard 2xLLOV,99.1%
same,Freeze-Thaw Accuracy [%],[5]; validation standard LLOV,108.8%
same,Freeze-Thaw Accuracy [%],[5]; validation standard MOV,99.1%
same,Freeze-Thaw Accuracy [%],[5]; validation standard ULOV,102.2%
